This passage reports IC50 results from patent publication US20170253607A1, “LONG-ACTING HIV PROTEASE INHIBITOR” (Shionogi & Co., Ltd., priority 2014, published 2017).

For this assay, the target named is HIV-1 PR (Human immunodeficiency virus type 1 group M subtype B, UniProt P04585). As to the kind of experiment: HIV-protease inhibitory activity assay (FRET peptide substrate). The settings on record: Test Example 1. It counts as biochemical. In short, it runs like this: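 Compounds were preincubated with HIV-1 PR (0.83 ng) at room temperature in pH 4.8 NaAc buffer (0.5 M NaCl, EDTA, DTT, Tween 20), then HiLyte Fluor 488/QXL 520 FRET peptide (2 μmol/L final) was added for 60 min. Fluorescence was read at 485/535 nm, and IC50 was fitted by four-parameter logistic regression.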
Regarding `COc1ccc(S(=O)(=O)N(CC(C)C)CC(O)C(Cc2ccc(NCc3cc(C)c(-c4sc5c(c4C(=O)O)CC(C)(C)CC5)c(C)c3)cc2)NC(=O)OC2COC3(C)OCCC23)cc1` (stereo not drawn) [Compound I-533], the IC50 (commonly the concentration at which inhibition is half-maximal) was determined as 10.6 nM. `COc1ccc(S(=O)(=O)N(CC(C)C)CC(O)C(Cc2ccc(NCc3ccc(-c4sc5c(c4C(=O)O)CC(C)(C)CC5)c(C)c3)cc2)NC(=O)OC2COC3(C)OCCC23)cc1` (stereo not drawn) [Compound I-534] returned an IC50 of 4.11 nM. For `COc1ccc(S(=O)(=O)N(CC(C)C)CC(O)C(Cc2ccc(NCc3c(C)c(C)c(-c4sc5c(c4C(=O)O)CC(C)(C)CC5)c(C)c3C)cc2)NC(=O)OC2COC3(C)OCCC23)cc1` (stereo not drawn) [Compound I-535] the value was 43.1 nM. To `COc1ccc(S(=O)(=O)N(CC(C)C)CC(O)C(Cc2ccc(NC3c4ccccc4C(=O)N3c3sc4c(c3C(=O)O)CC(C)(C)CC4)cc2)NC(=O)OC2COC3(C)OCCC23)cc1` (stereo not drawn) [Compound I-536] belongs 2.1 nM; to `COc1ccc(S(=O)(=O)N(CC(C)C)CC(O)C(Cc2ccc(NCc3cccc(-c4sc5c(c4C(=O)O)CC(C)(C)CC5)c3F)cc2)NC(=O)OC2COC3(C)OCCC23)cc1` (stereo not drawn) [Compound I-543], 2.14 nM.

`COc1ccc(S(=O)(=O)N(CC(C)C)CC(O)C(Cc2ccc(NCc3cccc(-c4sc5c(c4C(=O)O)CC(C)(C)CC5)c3Cl)cc2)NC(=O)OC2COC3(C)OCCC23)cc1` (stereo not drawn) [Compound I-544]: the 50% inhibitory concentration (IC50) came to 3.65 nM. To `COc1ccc(S(=O)(=O)N(CC(C)C)CC(O)C(Cc2ccc(NCc3c(-c4sc5c(c4C(=O)O)CC(C)(C)CC5)cccc3[N+](=O)[O-])cc2)NC(=O)OC2COC3(C)OCCC23)cc1` (stereo not drawn) [Compound I-546] belongs 1.86 nM. To `COc1ccc(S(=O)(=O)N(CC(C)C)CC(O)C(Cc2ccc(NCc3cc(Cl)ccc3-c3sc4c(c3C(=O)O)CC(C)(C)CC4)cc2)NC(=O)OC2COC3(C)OCCC23)cc1` (stereo not drawn) [Compound I-547] belongs 2.28 nM; to `COc1ccc(S(=O)(=O)N(CC(C)C)CC(O)C(Cc2ccc(NCc3ccc(O)cc3-c3sc4c(c3C(=O)O)CC(C)(C)CC4)cc2)NC(=O)OC2COC3(C)OCCC23)cc1` (stereo not drawn) [Compound I-548], 1.49 nM. To `COc1ccc(S(=O)(=O)N(CC(C)C)CC(O)C(Cc2ccc(NCc3cc(C)cc(-c4sc5c(c4C(=O)O)CC(C)(C)CC5)c3)cc2)NC(=O)OC2COC3(C)OCCC23)cc1` (stereo not drawn) [Compound I-549] belongs 1.55 nM; to `COc1ccc(S(=O)(=O)N(CC(C)C)CC(O)C(Cc2ccc(NCc3ccc(-c4sc5c(c4C(=O)O)CC(C)(C)CC5)nc3)cc2)NC(=O)OC2COC3(C)OCCC23)cc1` (stereo not drawn) [Compound I-551], 1.34 nM; to `COc1ccc(S(=O)(=O)N(CC(C)C)CC(O)C(Cc2ccc(NCc3cc(OC)cc(-c4sc5c(c4C(=O)O)CC(C)(C)CC5)c3OC)cc2)NC(=O)OC2COC3(C)OCCC23)cc1` (stereo not drawn) [Compound I-553], 1.92 nM. `COc1ccc(S(=O)(=O)N(CC(C)C)CC(O)C(Cc2ccc(NCc3ccc(-c4sc5c(c4C(=O)O)CC(C)(C)CC5)c(OC)c3)cc2)NC(=O)OC2COC3(C)OCCC23)cc1` (stereo not drawn) [Compound I-554] registered an IC50 of 1.77 nM. This IC50 and that of the compound before are within 1.5-fold of each other. For `COc1ccc(S(=O)(=O)N(CC(C)C)CC(O)C(Cc2ccc(NCc3cc(C)c(-c4sc5c(c4C(=O)O)CC(C)(C)CC5)cc3C)cc2)NC(=O)OC2COC3(C)OCCC23)cc1` (stereo not drawn) [Compound I-556] the value was 5.45 nM; for `COc1ccc(S(=O)(=O)N(CC(C)C)CC(O)C(Cc2ccc(NCc3cncc(-c4sc5c(c4C(=O)O)CC(C)(C)CC5)c3)cc2)NC(=O)OC2COC3(C)OCCC23)cc1` (stereo not drawn) [Compound I-557], 1.67 nM.

In the case of `COc1ccc(S(=O)(=O)N(CC(C)C)CC(O)C(Cc2ccc(NCc3cccc(-c4sc5c(c4C(=O)O)CC(C)(C)CC5)c3OCc3ccccc3)cc2)NC(=O)OC2COC3(C)OCCC23)cc1` (stereo not drawn) [Compound I-558], the IC50 worked out at 4.99 nM. This IC50 lies about 3-fold higher than the previous one. For `COc1ccc(S(=O)(=O)N(CC(C)C)CC(O)C(Cc2ccc(NCc3cnc(-c4sc5c(c4C(=O)O)CC(C)(C)CC5)c(C)c3)cc2)NC(=O)OC2COC3(C)OCCC23)cc1` (stereo not drawn) [Compound I-559] the value was 1.87 nM; for `COc1ccc(S(=O)(=O)N(CC(C)C)CC(O)C(Cc2ccc(NCc3cc(O)cc(-c4sc5c(c4C(=O)O)CC(C)(C)CC5)c3)cc2)NC(=O)OC2COC3(C)OCCC23)cc1` (stereo not drawn) [Compound I-562], 1.98 nM; for `COc1ccc(S(=O)(=O)N(CC(C)C)CC(O)C(Cc2ccc(NCc3ccc(Oc4ccc(-c5sc6c(c5C(=O)O)CC(C)(C)CC6)cc4)cc3)cc2)NC(=O)OC2COC3(C)OCCC23)cc1` (stereo not drawn) [Compound I-564], 14.2 nM. `COc1ccc(S(=O)(=O)N(CC(C)C)CC(O)C(Cc2ccc(NCc3ccc(C#N)cc3-c3sc4c(c3C(=O)O)CC(C)(C)CC4)cc2)NC(=O)OC2COC3(C)OCCC23)cc1` (stereo not drawn) [Compound I-565] registered a concentration for half-maximal inhibition (IC50) of 1.75 nM.

`COc1ccc(S(=O)(=O)N(CC(C)C)CC(O)C(Cc2ccc(NCc3nc4ccccc4cc3-c3sc4c(c3C(=O)O)CC(C)(C)CC4)cc2)NC(=O)OC2COC3(C)OCCC23)cc1` (stereo not drawn) [Compound I-568] had an IC50 of 1.54 nM. For `COc1ccc(S(=O)(=O)N(CC(C)C)CC(O)C(Cc2ccc(N(C)CC3=C(c4sc5c(c4C(=O)O)CC(C)(C)CC5)COC3)cc2)NC(=O)OC2COC3(C)OCCC23)cc1` (stereo not drawn) [Compound I-569] the value was 2.22 nM.

Turning to `COc1ccc(S(=O)(=O)N(CC(C)C)CC(O)C(Cc2ccc(N(C)Cc3cocc3-c3sc4c(c3C(=O)O)CC(C)(C)CC4)cc2)NC(=O)OC2COC3(C)OCCC23)cc1` (stereo not drawn) [Compound I-570], half-maximal inhibition (IC50) required 1.87 nM. The compound `COc1ccc(S(=O)(=O)N(CC(C)C)CC(O)C(Cc2ccc(NCc3ccc(Oc4ccc(-c5sc6c(c5C(=O)O)CC(C)(C)CC6)c(C)c4)cc3)cc2)NC(=O)OC2COC3(C)OCCC23)cc1` (stereo not drawn) [Compound I-571] had an IC50 of 22.2 nM. Against the preceding compound, the IC50 is about 12-fold higher.

`COc1ccc(S(=O)(=O)N(CC(C)C)CC(O)C(Cc2ccc(N(C)Cc3ccc(Oc4ccc(-c5sc6c(c5C(=O)O)CC(C)(C)CC6)c(C)c4)cc3)cc2)NC(=O)OC2COC3(C)OCCC23)cc1` (stereo not drawn) [Compound I-572]: the half-inhibitory concentration (IC50) amounted to 30 nM.

In turn, `COc1ccc(S(=O)(=O)N(CC(C)C)CC(O)C(Cc2ccc(N3CCC(c4ccc(-c5sc6c(c5C(=O)O)CC(C)(C)CC6)cc4)C3)cc2)NC(=O)OC2COC3(C)OCCC23)cc1` (stereo not drawn) [Compound I-576] had a concentration for half-maximal inhibition (IC50) of 4.95 nM. For `COc1ccc(S(=O)(=O)N(CC(C)C)CC(O)C(Cc2ccc(N3CCC(c4ccc(-c5sc6c(c5C(=O)O)CC(C)(C)CC6)cc4)C3)cc2)NC(=O)OC2COC3(C)OCCC23)cc1` (stereo not drawn) [Compound I-577] the value was 6.47 nM. As for `COc1ccc(S(=O)(=O)N(CC(C)C)CC(O)C(Cc2ccc(N(C)Cc3ccccc3NC(=O)c3sc4c(c3C(=O)O)CC(C)(C)CC4)cc2)NC(=O)OC2COC3(C)OCCC23)cc1` (stereo not drawn) [Compound I-587], the half-inhibitory concentration (IC50) amounted to 1.71 nM. In turn, `COc1ccc(S(=O)(=O)N(CC(C)C)CC(O)C(Cc2ccc(N(C)Cc3ccccc3C(=O)N(C)c3sc4c(c3C(=O)O)CC(C)(C)CC4)cc2)NC(=O)OC2COC3(C)OCCC23)cc1` (stereo not drawn) [Compound I-590] showed an IC50 of 2.82 nM. Compared with the last compound, the IC50 is about 1.6-fold higher. For `CC(C)CN(CC(O)C(Cc1ccc(NCc2ccccc2C(=O)Nc2sc3c(c2C(=O)O)CC(C)(C)CC3)cc1)NC(=O)OC1COC2(C)OCCC12)S(=O)(=O)c1ccc2c(c1)OCO2` (stereo not drawn) [Compound I-591], the IC50 amounted to 3.16 nM. For `CC(C)CN(CC(O)C(Cc1ccc(NCc2ccccc2C(=O)Nc2sc3c(c2C(=O)O)CC(C)(C)CC3)cc1)NC(=O)OC1COC2(C)OCCC12)S(=O)(=O)c1ccc2ncsc2c1` (stereo not drawn) [Compound I-592] the value was 3.19 nM; for `COc1ccc(S(=O)(=O)N(CC(C)C)C[C@@H](O)[C@H](Cc2ccc(NCC(=O)Nc3sc4c(c3C(=O)O)CC(C)(C)CC4)cc2)NC(=O)OC2CO[C@@]3(C)OCC[C@@H]23)cc1` (stereo partly drawn) [Compound I-593], 1.71 nM; for `COc1ccc(S(=O)(=O)N(CC(C)C)CC(O)C(Cc2ccc(N3CCC(Oc4ccccc4C(=O)Nc4sc5c(c4C(=O)O)CC(C)(C)CC5)C3)cc2)NC(=O)OC2COC3(C)OCCC23)cc1` (stereo not drawn) [Compound I-595], 2.17 nM. To `COc1ccc(S(=O)(=O)N(CC(C)C)CC(O)C(Cc2ccc(N3CCC(Oc4cccc(-c5sc6c(c5C(=O)O)CC(C)(C)CC6)c4C)C3)cc2)NC(=O)OC2COC3(C)OCCC23)cc1` (stereo not drawn) [Compound I-597] belongs 7.37 nM. For `COc1ccc(S(=O)(=O)N(CC(C)C)CC(O)C(Cc2ccc(NCC3CCCCN3C(=O)c3sc4c(c3C(=O)O)CC(C)(C)CC4)cc2)NC(=O)OC2COC3(C)OCCC23)cc1` (stereo not drawn) [Compound I-604] the value was 2.19 nM; for `COc1ccc(S(=O)(=O)N(CC(C)C)CC(O)C(Cc2ccc(NCC3CCCCN3C(=O)c3sc4c(c3C(=O)O)CC(C)(C)CC4)cc2)NC(=O)OC2COC3(C)OCCC23)cc1` (stereo not drawn) [Compound I-605], 1.96 nM; for `COc1ccc(S(=O)(=O)N(CC(C)C)CC(O)C(Cc2ccc(NCc3cc(C)ccc3NC(=O)c3sc4c(c3C(=O)O)CC(C)(C)CC4)cc2)NC(=O)OC2COC3(C)OCCC23)cc1` (stereo not drawn) [Compound I-610], 2.16 nM. The compound `COc1ccc(S(=O)(=O)N(CC(C)C)CC(O)C(Cc2ccc(NCC3CCCCC3NC(=O)c3sc4c(c3C(=O)O)CC(C)(C)CC4)cc2)NC(=O)OC2COC3(C)OCCC23)cc1` (stereo not drawn) [Compound I-611] yielded an IC50 of 1.95 nM. Regarding `COc1ccc(S(=O)(=O)N(CC(C)C)CC(O)C(Cc2ccc(NCc3cc4ccccc4cc3NC(=O)c3sc4c(c3C(=O)O)CC(C)(C)CC4)cc2)NC(=O)OC2COC3(C)OCCC23)cc1` (stereo not drawn) [Compound I-612], the IC50 is 2.11 nM. For `COc1ccc(S(=O)(=O)N(CC(C)C)CC(O)C(Cc2ccc(NCC3CCCCC3C(=O)Nc3sc4c(c3C(=O)O)CC(C)(C)CC4)cc2)NC(=O)OC2COC3(C)OCCC23)cc1` (stereo not drawn) [Compound I-615] the value was 3.37 nM; for `COc1ccc(S(=O)(=O)N(CC(C)C)CC(O)C(Cc2ccc(N(C)CC3CCCCC3C(=O)Nc3sc4c(c3C(=O)O)CC(C)(C)CC4)cc2)NC(=O)OC2COC3(C)OCCC23)cc1` (stereo not drawn) [Compound I-616], 4.2 nM; for `COc1ccc(S(=O)(=O)N(CC(C)C)CC(O)C(Cc2ccc(NCCOc3ccccc3-c3sc4c(c3C(=O)O)CC(C)(C)CC4)cc2)NC(=O)OC2COC3(C)OCCC23)cc1` (stereo not drawn) [Compound I-619], 2.48 nM.
